Data reported in PubChem BioAssay AID256 (DTP/NCI, 2004).
Inconclusive results and toxic doses are left out. Rule for the calls: active = survival T/C of 150% or more; inactive = T/C below 125% in these data.

Test system: CD2F1 mice, L1210 leukemia ip, survival T/C
Assay: NCI In Vivo Anticancer Drug Screen. Data for tumor model L1210 Leukemia (intraperitoneal) in CD2F1 (CDF1) mice
Details: higher = longer survival
How it was run: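 Antitumor effect is scored in animals hosting a serially transplanted tumor. Values compare compound-dosed animals against vehicle-only controls as a simple quotient.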

[1] = endpoint: mean survival time, dose: 100.0 mg/kg/injection, schedule: Q01DX009 (ip), vehicle: saline
[2] = endpoint: mean survival time, dose: 100.0 mg/kg/injection, schedule: Q04DX003 (ip), vehicle: saline with Tween-80
[3] = endpoint: mean survival time, dose: 50.0 mg/kg/injection, schedule: Q01DX009 (ip), vehicle: saline with Tween-80
[4] = endpoint: mean survival time, dose: 100.0 mg/kg/injection, schedule: Q01DX009 (ip), vehicle: saline with Tween-80
[5] = endpoint: mean survival time, dose: 200.0 mg/kg/injection, schedule: Q01DX009 (ip), vehicle: saline with Tween-80
[6] = endpoint: mean survival time, dose: 200.0 mg/kg/injection, schedule: Q04DX003 (ip), vehicle: saline with Tween-80
[7] = endpoint: mean survival time, dose: 400.0 mg/kg/injection, schedule: Q01DX009 (ip), vehicle: saline with Tween-80

Measured: T/C

COC(=O)N1C=Cc2ccccc2C1C#N (stereo not given)
inactive: endpoint: mean survival time, dose: 25.0 mg/kg/injection, schedule: Q01DX009 (ip), vehicle: saline 89 % of control | endpoint: mean survival time, dose: 50.0 mg/kg/injection, schedule: Q01DX009 (ip), vehicle: saline 98 % of control | [1] 88 % of control

Cc1cc(NC(C)CN(C)C)nc(/N=C(\N)Nc2ccc(Cl)c(Cl)c2)n1 (stereo not given)
inactive: [2] 96 % of control

O=C1C2C3CCC(C3)C2C(=O)C2C3CCC(C3)C12 (stereo not given)
inactive: endpoint: mean survival time, dose: 100.0 mg/kg/injection, schedule: Q04DX003 (ip), vehicle: other 93 % of control | endpoint: mean survival time, dose: 200.0 mg/kg/injection, schedule: Q04DX003 (ip), vehicle: other 89 % of control | endpoint: mean survival time, dose: 400.0 mg/kg/injection, schedule: Q04DX003 (ip), vehicle: other 93 % of control

Nc1[nH]c(=O)[nH]c(=O)c1N
inactive: [3] 93 % of control | [4] 93 % of control | endpoint: mean survival time, dose: 100.0 mg/kg/injection, schedule: Q04DX002 (ip), vehicle: saline 97 % of control | [2] 108 % of control | [5] 93 % of control | endpoint: mean survival time, dose: 200.0 mg/kg/injection, schedule: Q04DX002 (ip), vehicle: saline 97 % of control | [6] 108 % of control

COc1nc(NC2OC(CO)C(O)C(O)C2O)c(C(C)=O)c(=O)[nH]1 (stereo not given)
inactive: endpoint: median survival time, dose: 12.5 mg/kg/injection, schedule: Q01DX005 (ip), vehicle: saline 97 % of control | endpoint: median survival time, dose: 25.0 mg/kg/injection, schedule: Q01DX005 (ip), vehicle: saline 98 % of control | endpoint: median survival time, dose: 50.0 mg/kg/injection, schedule: Q01DX005 (ip), vehicle: saline 98 % of control | endpoint: median survival time, dose: 100.0 mg/kg/injection, schedule: Q01DX005 (ip), vehicle: saline 97 % of control | endpoint: median survival time, dose: 200.0 mg/kg/injection, schedule: Q01DX005 (ip), vehicle: saline 98 % of control

c1ccc2nc(-c3cc4ccccc4s3)ccc2c1
inactive: [4] 103 % of control | [2] 107 % of control | [5] 100 % of control | [6] 101 % of control | [7] 97 % of control | endpoint: mean survival time, dose: 400.0 mg/kg/injection, schedule: Q04DX003 (ip), vehicle: saline with Tween-80 96 % of control

CC(=O)Nc1ncnc2c1ncn2C1OC(COC(C)=O)C(NC(=O)C(F)(F)F)C1OC(C)=O (stereo not given)
inactive: endpoint: median survival time, dose: 12.5 mg/kg/injection, schedule: Q01DX005 (ip), vehicle: alkali diluted with saline 109 % of control | endpoint: median survival time, dose: 25.0 mg/kg/injection, schedule: Q01DX005 (ip), vehicle: alkali diluted with saline 102 % of control | endpoint: median survival time, dose: 50.0 mg/kg/injection, schedule: Q01DX005 (ip), vehicle: alkali diluted with saline 109 % of control | endpoint: median survival time, dose: 100.0 mg/kg/injection, schedule: Q01DX005 (ip), vehicle: alkali diluted with saline 107 % of control | endpoint: median survival time, dose: 200.0 mg/kg/injection, schedule: Q01DX005 (ip), vehicle: alkali diluted with saline 106 % of control

Nc1nc(SCC(=O)c2ccccc2)c2[nH]cnc2n1
inactive: endpoint: mean survival time, dose: 100.0 mg/kg/injection, schedule: Q04DX003 (ip), vehicle: saline sonified 113 % of control | endpoint: mean survival time, dose: 176.0 mg/kg/injection, schedule: Q04DX003 (ip), vehicle: saline with Tween-80 113 % of control | endpoint: mean survival time, dose: 200.0 mg/kg/injection, schedule: Q04DX003 (ip), vehicle: saline sonified 107 % of control

O=C1OC(=O)C2CC(Br)C(Br)CC12 (stereo not given)
inactive: [4] 95 % of control | [5] 98 % of control | [7] 91 % of control

NC(=Nc1ccc(Cl)cc1)/N=C(/N)N1CCN(/C(N)=N/C(N)=Nc2ccc(Cl)cc2)CC1
inactive: [3] 104 % of control | [2] 98 % of control | [6] 98 % of control

NCCC(=O)CN
inactive: [1] 110 % of control | endpoint: mean survival time, dose: 100.0 mg/kg/injection, schedule: Q04DX003 (ip), vehicle: saline 100 % of control | endpoint: mean survival time, dose: 200.0 mg/kg/injection, schedule: Q01DX009 (ip), vehicle: saline 101 % of control | endpoint: mean survival time, dose: 200.0 mg/kg/injection, schedule: Q04DX003 (ip), vehicle: saline 107 % of control | endpoint: mean survival time, dose: 400.0 mg/kg/injection, schedule: Q01DX009 (ip), vehicle: saline 91 % of control | endpoint: mean survival time, dose: 400.0 mg/kg/injection, schedule: Q04DX003 (ip), vehicle: saline 98 % of control

COc1ccc(CCOS(=O)(=O)c2ccc(C)cc2)cc1
inactive: endpoint: mean survival time, dose: 100.0 mg/kg/injection, schedule: Q01DX001 (ip), vehicle: saline with Tween-80 103 % of control | endpoint: mean survival time, dose: 200.0 mg/kg/injection, schedule: Q01DX001 (ip), vehicle: saline with Tween-80 101 % of control | endpoint: mean survival time, dose: 400.0 mg/kg/injection, schedule: Q01DX001 (ip), vehicle: saline with Tween-80 101 % of control

CCOC(=O)C(CCCl)C(=O)OCC
inactive: endpoint: mean survival time, dose: 100.0 mg/kg/injection, schedule: Q01DX001 (ip), vehicle: saline 104 % of control | endpoint: mean survival time, dose: 200.0 mg/kg/injection, schedule: Q01DX001 (ip), vehicle: saline 104 % of control | endpoint: mean survival time, dose: 400.0 mg/kg/injection, schedule: Q01DX001 (ip), vehicle: saline 101 % of control

COc1cc2ccnc(/C=N\NC(N)=S)c2cc1OC
inactive: endpoint: mean survival time, dose: 25.0 mg/kg/injection, schedule: Q01DX009 (ip), vehicle: saline with Tween-80 93 % of control | [3] 96 % of control | [4] 96 % of control | [5] 95 % of control
